{
  "source": "paper PMC3228903",
  "about": "(The FEBS journal, 2011)",
  "key": {"WT MAO A": {"biological_target": "WT MAO A", "conditions": "cited from earlier work; for Ki: WT MAO A"}, "Ile199Ala MAO B": {"biological_target": "T1, Ile199Ala MAO B (Homo sapiens, UniProt P27338, I199A)", "T1 sequence (P27338 1-520 I199A)": "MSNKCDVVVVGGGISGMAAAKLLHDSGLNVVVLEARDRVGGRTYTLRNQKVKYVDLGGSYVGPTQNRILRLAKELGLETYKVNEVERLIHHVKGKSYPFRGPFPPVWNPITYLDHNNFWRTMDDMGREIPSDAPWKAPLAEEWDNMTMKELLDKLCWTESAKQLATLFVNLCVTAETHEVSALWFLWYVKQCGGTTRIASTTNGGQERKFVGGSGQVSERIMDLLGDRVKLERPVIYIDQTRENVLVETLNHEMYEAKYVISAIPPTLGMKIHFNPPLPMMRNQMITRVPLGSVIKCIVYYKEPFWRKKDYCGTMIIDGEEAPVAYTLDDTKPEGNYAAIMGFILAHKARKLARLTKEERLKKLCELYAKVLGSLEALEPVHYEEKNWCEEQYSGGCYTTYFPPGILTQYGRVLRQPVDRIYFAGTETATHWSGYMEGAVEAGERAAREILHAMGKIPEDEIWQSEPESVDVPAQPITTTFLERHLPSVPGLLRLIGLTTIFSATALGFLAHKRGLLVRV", "assay": "Steady-state substrate oxidation and pH dependence, Ile199Ala MAO B", "type": "biochemical"}, "[1]": {"biological_target": "T2, Ile199Ala/Tyr326Ala MAO B (Homo sapiens, UniProt P27338, I199A/Y326A)", "T2 sequence (P27338 1-520 I199A/Y326A)": "T1 sequence (P27338 1-520 I199A) with Y326A", "assay": "Steady-state substrate oxidation and pH dependence, Ile199Ala/Tyr326Ala MAO B", "type": "biochemical"}, "MAO B Ile199Ala": {"biological_target": "T3, MAO B Ile199Ala (Homo sapiens, UniProt P27338, I199A)", "T3 sequence (P27338 1-520 I199A)": "T1 sequence (P27338 1-520 I199A)", "type": "biochemical"}, "[2]": {"biological_target": "T4, MAO B Ile199Ala-Tyr326Ala (Homo sapiens, UniProt P27338, I199A/Y326A)", "T4 sequence (P27338 1-520 I199A/Y326A)": "T1 sequence (P27338 1-520 I199A) with Y326A", "type": "biochemical"}, "WT MAO B [3]": {"biological_target": "T5, WT MAO B (Homo sapiens, UniProt P27338)", "T5 sequence (P27338 1-520)": "T1 sequence (P27338 1-520 I199A) with A199I", "conditions": "pH 7.5; cited from earlier work"}, "WT MAO B [4]": {"biological_target": "T5, WT MAO B", "assay": "Inhibition of WT MAO B, Ki from initial rates of substrate oxidation", "type": "biochemical"}, "WT MAO B [5]": {"biological_target": "T5, WT MAO B", "assay": "Steady-state substrate oxidation and pH dependence, WT MAO B", "type": "biochemical", "conditions": "pH 7.5"}, "[6]": {"conditions": "Ki, Ile199Ala single mutant, pH 7.5"}, "[7]": {"conditions": "Ile199Ala-Tyr326Ala double mutant"}, "[8]": {"conditions": "Ile199Ala-Tyr326Ala double mutant, pH 9.3"}},
  "note": "Substitutions are numbered along the chain they refer to. Where two headings read alike, the source gives them in different places.",
  "data": [
    {"smiles": "N[C@@H]1C[C@H]1c1ccccc1", "note": "(racemic) [Tranylcypromine]", "values": [
      {"measurement": "Ki", "setting": "WT MAO A", "result": 19, "unit": "µM"}
    ]},
    {"smiles": "NCc1ccccc1", "note": "[Benzylamine, benzylamine]", "values": [
      {"measurement": "V/K extrapolated for fully deprotonated free enzyme, of WT activity", "setting": "Ile199Ala MAO B; single mutant", "result": 42, "unit": "%"},
      {"measurement": "KM", "setting": "[1]; I199A-Y326A, pH 7.5", "result": "too high to measure"},
      {"measurement": "2nd order rate", "setting": "[1]; I199A-Y326A, pH 7.5, no saturation", "result": "2nd order rate =: 0.0106 ±0.0002 μM^−1min^−1"},
      {"measurement": "V/K extrapolated for fully deprotonated free enzyme, of WT activity", "setting": "[1]; double mutant", "result": "~ 5%"}
    ]},
    {"smiles": "C(=CCc1ccccc1)Cc1ccccc1", "note": "[DPB, 1,4-Diphenyl-2-butene]", "values": [
      {"measurement": "Ki", "setting": "MAO B Ile199Ala; [6]", "result": "8.1 ± 1.6", "unit": "µM"},
      {"measurement": "binding / inhibition in words", "setting": "[2]; [7]", "result": "no detectable binding"},
      {"measurement": "Ki", "setting": "[2]; [8]", "result": "no inhibition"},
      {"measurement": "Ki", "setting": "WT MAO B [3]", "result": "34.5 ± 1.4", "unit": "µM"}
    ]},
    {"smiles": "C(C=Cc1ccccc1)=Cc1ccccc1", "note": "[DPBD, 1,4-Diphenyl-1,3-butadiene]", "values": [
      {"measurement": "Ki", "setting": "MAO B Ile199Ala", "result": "1 ± 0.03", "unit": "µM"},
      {"measurement": "binding / inhibition in words", "setting": "[2]; [7]", "result": "no detectable binding"},
      {"measurement": "Ki", "setting": "[2]; [8]", "result": "no inhibition"},
      {"measurement": "Ki", "setting": "WT MAO B [3]", "result": "7 ± 0.2", "unit": "µM"}
    ]},
    {"smiles": "CC(C)=CCC/C(C)=C/CC/C(C)=C/CO", "note": "[Farnesol, trans,trans-farnesol]", "values": [
      {"measurement": "Ki", "setting": "MAO B Ile199Ala; [6]", "result": "2.7 ± 0.4", "unit": "µM"},
      {"measurement": "Ki", "setting": "[2]", "result": "18 ± 3", "unit": "µM"},
      {"measurement": "binding / inhibition in words", "setting": "[2]; [7]", "result": "weaker binding"},
      {"measurement": "binding to human MAO A in words", "setting": "WT MAO A; previous work", "result": "do not bind"}
    ]},
    {"smiles": "Cc1nccc2c1[nH]c1ccccc12", "note": "[Harmane, harmane]", "values": [
      {"measurement": "Ki", "setting": "WT MAO B [4]", "result": "140 ± 47", "unit": "µM"},
      {"measurement": "Ki", "setting": "MAO B Ile199Ala", "result": "550 ± 50", "unit": "µM"},
      {"measurement": "Ki", "setting": "[2]", "result": "165 ± 17", "unit": "µM"},
      {"measurement": "Ki", "setting": "WT MAO A", "result": "0.58 ± 0.02", "unit": "µM"}
    ]},
    {"smiles": "O=C1Nc2ccccc2C1=O", "note": "[Isatin]", "values": [
      {"measurement": "Ki", "setting": "WT MAO A", "result": 15, "unit": "µM"}
    ]},
    {"smiles": "CN(C)c1ccc2nc3ccc(=[N+](C)C)cc-3sc2c1", "note": "[Methylene Blue, methylene blue]", "values": [
      {"measurement": "binding / inhibition in words", "setting": "[2]; [7]", "result": "affinity higher than that observed with WT MAO B"}
    ]},
    {"smiles": "NCCCCc1ccccc1", "note": "[Phenylbutylamine, phenylbutylamine]", "values": [
      {"measurement": "Km", "setting": "WT MAO B [5]", "result": "19 ± 3", "unit": "µM"},
      {"measurement": "kcat", "setting": "WT MAO B [5]", "result": "1.83 ± 0.083", "unit": "s⁻¹"},
      {"measurement": "Km", "setting": "Ile199Ala MAO B; I199A, pH 7.5", "result": "8.9 ± 0.7", "unit": "µM"},
      {"measurement": "kcat", "setting": "Ile199Ala MAO B; I199A, pH 7.5", "result": "2.25 ± 0.05", "unit": "s⁻¹"},
      {"measurement": "Km", "setting": "[1]; I199A-Y326A, pH 7.5", "result": "55 ± 2", "unit": "µM"},
      {"measurement": "kcat", "setting": "[1]; I199A-Y326A, pH 7.5", "result": "2.37 ± 0.017", "unit": "s⁻¹"}
    ]},
    {"smiles": "NCCc1ccccc1", "note": "[Phenylethylamine, Phenethylamine]", "values": [
      {"measurement": "increase in KM relative to WT enzyme", "setting": "Ile199Ala MAO B; single mutant, pH 7.5", "result": 4, "unit": "fold"},
      {"measurement": "KM value higher than WT enzyme", "setting": "[1]; double mutant, pH 7.5", "result": 75, "unit": "fold"}
    ]},
    {"smiles": "Cc1ccc2c(c1)c1c3n2CCNC3CCC1", "note": "(stereo not shown) [Pirlindole, pirlindole]", "values": [
      {"measurement": "Ki", "setting": "WT MAO B [4]; WT MAO B, pH 7.5", "result": "No inhibition"},
      {"measurement": "Ki", "setting": "WT MAO B [4]; WT MAO B, pH 7.5, listed as pirlindole", "result": "neither MAO B nor the Ile199Ala single mutant are inhibited"},
      {"measurement": "Ki", "setting": "MAO B Ile199Ala; Ile199Ala single mutant, pH 7.5", "result": "No inhibition"},
      {"measurement": "Ki", "setting": "MAO B Ile199Ala; Ile199Ala single mutant, pH 7.5, listed as pirlindole", "result": "neither MAO B nor the Ile199Ala single mutant are inhibited"},
      {"measurement": "Ki", "setting": "[2]", "result": "4.1 ± 0.2", "unit": "µM"},
      {"measurement": "Ki", "setting": "WT MAO A", "result": "0.92 ± 0.04", "unit": "µM"}
    ]},
    {"smiles": "C[C@H](NCc1ccc(OCc2cccc(F)c2)cc1)C(N)=O", "note": "[Safinamide]", "values": [
      {"measurement": "weaker affinity than WT MAO B", "setting": "[2]; double mutant relative to WT MAO B", "result": "~ 10 fold"}
    ]},
    {"smiles": "NC1CCc2ccccc21", "note": "(stereo not shown) [aminoindane]", "values": [
      {"measurement": "binding / inhibition in words", "setting": "[2]", "result": "Weak binding"}
    ]},
    {"smiles": "CNC1CCc2ccccc21", "note": "(stereo not shown) [methylaminoindane]", "values": [
      {"measurement": "binding / inhibition in words", "setting": "[2]", "result": "Weak binding"}
    ]},
    {"smiles": "NCc1ccc(C(F)(F)F)cc1", "note": "[p-CF3-benzylamine]", "values": [
      {"measurement": "V/K extrapolated for fully deprotonated free enzyme, of WT activity", "setting": "Ile199Ala MAO B; single mutant", "result": 33, "unit": "%"},
      {"measurement": "V/K extrapolated for fully deprotonated free enzyme, of WT activity", "setting": "[1]; double mutant", "result": 24, "unit": "%"}
    ]},
    {"smiles": "NS(=O)(=O)Cc1noc2ccccc12", "note": "[zonisamide]", "values": [
      {"measurement": "binding / inhibition in words", "setting": "[2]; [7]", "result": "no detectable inhibition"}
    ]}
  ]
}
